Source: patent publication US6960678B2, “Silanol enzyme inhibitors” (The Research Foundation of State University of New York, priority 1996, dated 2005)
Like-named read-outs stand apart in the source and are kept apart here.

Tests used:
[1] = target: T1, recombinant HIV-1 protease (Human immunodeficiency virus type 1 group M subtype B, UniProt P04585); test: HIV-1 protease inhibition, cleavage of substrate polypeptide, HPLC-based detection; format: biochemical
T1 construct: recombinant HIV-1 protease
Source text: The standard test procedure for HIV-1 protease inhibition uses recombinant HIV-1 protease in an assay which monitors cleavage of a substrate polypeptide using an HPLC-based detection system. Proc. Nat. Acad. Sci. 86, 9752 (1989).

[2] = storage stability as solid or in solution (polymerization / oligomerization); format: physicochemical
Source text: The compounds are stable and can be stored for weeks or longer at room temperature without noticeable decomposition in either solid or solution form. In addition, there is no intrinsic toxicity associated with silicon (Friedberg, K. D. and Schiller, E., Handbook on Toxicity of Inorganic Compounds, Eds. Seiler H, G., and Sigel, H.; Marcel Dekker, New York, 1988, pp. 595-617).
The C2 symmetry of the HIV protease has led to the development of C2 symmetric inhibitors such as Merck's L-700, 417. The silanediol analog 9a was prepared from the commercially available dichlorodiphenylsilane. Treatment of this dichlorosilane with the enantiomerically pure lithium reagent 53b led to the symmetric diether 54 in 75% yield. Cleavage of the ethers and oxidation to the diacid was followed by preparation of the diamide 56. For this study, N-benzyl amides were used as the simplest first analog. Hydrolysis of diphenylsilane 56 to the silanediol 9a was effected by treatment with triflic acid in dichloromethane at 0° C. for ten to 30 minutes. Under these conditions, both phenyl groups on silicon are lost very rapidly. We believe that the intermediate formed is not a di-triflate, but is the spirocyclic intermediate 57. Addition of the triflic acid-derived intermediate to an aqueous phase (either acidic, buffered, or basic) serves to finish hydrolysis to the diol 9a. […]

[3] = target: T2, HIV-protease enzyme (Human immunodeficiency virus type 1 group M subtype B, UniProt P04585); test: HIV-protease enzyme inhibition (Ki); format: biochemical, HIV-1
T2 construct: tested against HIV-protease enzyme (Ki)

[4] = test system: angiotensin-converting enzyme; settings: Galardy and Kortylewicz 1985; cited from earlier work
[5] = test system: HIV-1 virus; test: antiviral cell culture assay (IC90); format: cell-based
[6] = HIV-protease enzyme, read-out: Ki

For `O=C(NCc1ccccc1)[C@H](Cc1ccccc1)C[Si](O)(O)C[C@@H](Cc1ccccc1)C(=O)NCc1ccccc1` [Compound 9a, Di-benzyl 2-(S)-6-(S)-dibenzyl-4,4-dihydroxy-4-sila-heptanediamide], the IC50 [1] was 5.6 µM, the “storage stability of the pure diol” value ([2]; as a solid or in deuterochloroform solution, for weeks) was “without polymerization” and the “stability in DMSO” value ([2]; taken up in DMSO, one week) was “fully stable”. For the same compound, the Ki [3] was 3160 nM.

In the case of `O=C(NCc1ccccc1)C(Cc1ccccc1)C[Si](O)(CC(Cc1ccccc1)C(=O)NCc1ccccc1)O[Si](O)(CC(Cc1ccccc1)C(=O)NCc1ccccc1)CC(Cc1ccccc1)C(=O)NCc1ccccc1` [Compound 60, 1,3-dihydroxy-1,1,3-3-tetra(3-[2-(S)-2-phenylmethylpropionyl])-disiloxane tetra(N-phenylmethylamide)], the Ki [3, 6] is reported as 4670 nM.

`O=C(NCc1ccccc1)C(Cc1ccccc1)C[Si]1(CC(Cc2ccccc2)C(=O)NCc2ccccc2)O[Si](CC(Cc2ccccc2)C(=O)NCc2ccccc2)(CC(Cc2ccccc2)C(=O)NCc2ccccc2)O[Si](CC(Cc2ccccc2)C(=O)NCc2ccccc2)(CC(Cc2ccccc2)C(=O)NCc2ccccc2)O[Si](CC(Cc2ccccc2)C(=O)NCc2ccccc2)(CC(Cc2ccccc2)C(=O)NCc2ccccc2)O1` [Compound 61, 1,1,3,3,5,5,7,7-octa(3-[2-(S)-2-phenylmethylpropionyl)]-cyclotetrasiloxane octa(N-phenylmethylamide)] showed a Ki [3, 6] of 2300 nM.

For `C[Si](C)(O)O` [dimethylsilanediol], the “inhibitor of angiotensin-converting enzyme” value [4] is given as “inactive”.

`CC(C)(C)NC(=O)[C@@H]1CN(Cc2cccnc2)CCN1C[C@@H](O)C[C@@H](Cc1ccccc1)C(=O)N[C@H]1c2ccccc2C[C@H]1O` [indinavir, reference compound] gave an IC90 ([5]; Human immunodeficiency virus 1) of 33 nM.

“Di-[1-(S)-(2,(R)-hydroxyindanyl)]2-(S)-6-(S)-dibenzyl-4,4-dihydroxy-4-sila-heptanediamide [Compound 9b]” gave an IC90 [5] of 170 nM and a Ki [3, 6] of 2.7 nM.
